# Test results published in EP0951284B1, “[…] DERIVATIVES” (priority 1996, dated 1998).
# Counter-ions that a name gives are not always drawn.
# Experiments:
# [1] = molecular target: T1, MAO-B (Rattus norvegicus, UniProt P19643); assay: Inhibition of MAO activity in vitro, rat brain homogenate, PEA substrate; format: biochemical; design: The MAO enzyme source was a homogenate of rat brain in 0.3M sucrose; from tissue; host or cells: rat brain homogenate (600G supernatant); details: PEA 50µM
# T1 sequence (P19643 1-520): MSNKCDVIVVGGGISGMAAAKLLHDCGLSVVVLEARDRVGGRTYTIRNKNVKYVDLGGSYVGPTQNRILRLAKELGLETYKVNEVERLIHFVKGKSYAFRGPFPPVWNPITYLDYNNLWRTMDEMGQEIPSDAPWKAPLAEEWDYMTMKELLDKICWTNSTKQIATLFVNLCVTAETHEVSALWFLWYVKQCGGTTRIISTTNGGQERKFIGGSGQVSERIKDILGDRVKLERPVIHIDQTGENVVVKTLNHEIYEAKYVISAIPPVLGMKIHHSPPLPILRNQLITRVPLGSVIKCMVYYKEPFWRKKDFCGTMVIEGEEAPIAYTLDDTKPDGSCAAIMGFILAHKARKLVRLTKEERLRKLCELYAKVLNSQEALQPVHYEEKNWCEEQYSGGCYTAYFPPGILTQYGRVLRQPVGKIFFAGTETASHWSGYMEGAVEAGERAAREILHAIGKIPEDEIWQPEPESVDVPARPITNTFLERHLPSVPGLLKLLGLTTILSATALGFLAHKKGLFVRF
# Description: The MAO enzyme source was a homogenate of rat brain in 0.3M sucrose, which was centrifuged at 600G for 15 minutes. The supernatant was diluted appropriately in 0.05M phosphate buffer, and pre-incubated with serial dilutions of test compounds for 20 minutes at 37°C. ^14C-Labeled substrates (2-phenylethylamine, hereinafter PEA; 5-hydroxytryptamine, hereinafter 5-HT) were then added, and the incubation continued for a further 20 minutes (PEA), or 30-45 minutes (5-HT). Substrate concentrations used were 50µM (PEA) and 1mM (5-HT). In the case of PEA, enzyme concentration was chosen so that not more than 10% of the substrate was metabolized during the course of the reaction. The deaminated products were extracted into toluene-ethyl acetate (1:1, v/v) containing 0.6% (w/v) 2,5-diphenyloxazole prior to determination by liquid scintillation counting. Radioactivity in the eluate indicates the production of neutral and acidic metabolites formed as a result of MAO activity. Activity of MAO in the sample was expressed as a percentage of control activity in the absence of inhibitors after subtraction of appropriate blank values The activity determined using PEA as substrate is referred to as MAO-B, and that determined using 5-HT as MAO-A.
# [2] = molecular target: T2, Human erythrocyte acetylcholinesterase (Homo sapiens, UniProt P22303); assay: In vitro measurement of acetylcholinesterase (AChE) inhibition (Ellman method); format: biochemical; details: at time of peak activity, incubation 15 to 60 minutes at 37°C
# T2 construct: Human erythrocyte acetylcholinesterase (type XIII, Sigma Israel); purchased Sigma Israel type XIII; host or cells: human erythrocytes
# Description: Human erythrocyte acetylcholinesterase (type XIII, Sigma Israel), was prepared in a stock solution of 1U/ml, containing Triton (1%) and bovine serum albumin (0.05%) in phosphate buffer (pH 8). The enzyme (0.05U) was incubated with 3-5 different concentrations of test compound (in triplicate) for periods of from 15 to 60 minutes at 37°C. […] The percentage inhibition of AChE by each concentration of drug is calculated by comparison with that of enzyme in the absence of drug.
# [3] = molecular target: T3, MAO-A (Rattus norvegicus, UniProt P21396); assay: Inhibition of MAO activity following sub-acute (14 days) administration to rats, MAO-A; format: in vivo; design: from tissue; host or cells: brain, liver and intestine of Sprague Dawley rats; details: 20mg/kg daily for 14 days
# T3 sequence (P21396 1-526): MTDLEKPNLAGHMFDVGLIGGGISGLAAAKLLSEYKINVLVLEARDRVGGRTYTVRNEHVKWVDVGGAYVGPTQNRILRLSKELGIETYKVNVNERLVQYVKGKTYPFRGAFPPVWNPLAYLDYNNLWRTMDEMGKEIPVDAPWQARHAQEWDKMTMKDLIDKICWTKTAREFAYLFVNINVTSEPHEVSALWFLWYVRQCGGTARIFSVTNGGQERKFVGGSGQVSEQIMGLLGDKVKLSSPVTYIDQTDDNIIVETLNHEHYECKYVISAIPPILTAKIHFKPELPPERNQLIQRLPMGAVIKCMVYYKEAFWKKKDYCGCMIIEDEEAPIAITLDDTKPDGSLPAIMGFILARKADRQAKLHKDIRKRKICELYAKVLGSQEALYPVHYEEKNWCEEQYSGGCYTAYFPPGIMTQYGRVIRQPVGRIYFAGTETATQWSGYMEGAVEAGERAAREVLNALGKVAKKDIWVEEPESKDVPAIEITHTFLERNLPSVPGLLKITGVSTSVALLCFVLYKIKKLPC
# Description: (§1) Male Sabra mice, weighing 45-50g were injected with test compound solutions (prepared in 0.9% saline). Each dose was administered to two or three mice. The mice were sacrificed two hours after drug administration or at a time corresponding to the peak AChE inhibition time (see Table 6). The brain and liver were rapidly dissected and stored in appropriate vials on ice. The tissues were weighed, diluted to 1/20 in sucrose 0.3M and stored at -20°C before performance of the MAO assay described above. The results given in Table 6 relate to measurements made on brain tissue only.
# (§2) Experiments were done with Spague Dawley male rats. Procedures were repeated as described in Examples 2.1 and 2.2, but drug administration was continued daily for 14 days. At the end of this period animals were sacrificed and MAO levels determined in the brain, liver and intestines. Compound 17 was administered sub-cutaneously or per os at a dose of 20mg/kg.
# [4] = molecular target: T1, MAO-B; assay: Inhibition of MAO activity following sub-acute (14 days) administration to rats, MAO-B; format: in vivo; design: from tissue; host or cells: brain, liver and intestine of Sprague Dawley rats; details: 20mg/kg daily for 14 days
# Description: as §1, §2
# [5] = test system: mice; assay: Closed head injury (CHI) in mice: motor function, neurological severity score (NSS); format: in vivo; details: sc at ED50 for acetylcholinesterase inhibition, once 15 min after CHI
# Description: The procedure for closed head injury followed was as described for rats in Shohami et al. (J. Neurotrauma (1993) 10(2) 109-119) with changes as described.
# Animals: Male Sabra mice (Hebrew University strain) weighing 34-40g were used. They were housed in groups of 10 per cage, in a 12hr:12hr light:dark cycle. Food and water were provided ad libitum.
# Trauma was induced under ether anesthesia. A longitudinal incision was performed in the skin covering the skull and the skin retracted to expose the skull. The head was fixed manually at the lower plane of the impact apparatus. A weight of 333g was delivered by an electric device from a height of 3cm to the left hemisphere, 1-2mm lateral to the midline in the midcoronal plane.
# One point was awarded for the lack of a tested reflex or for the inability to perform the tasks outline in the Table. The maximal score that can be reached at 1 hour post-CHI is 25 points and 21 at later times. The difference in NSS at 1hr and at any other time reflects the recovery, and is referred to as NSS. An NSS score of 15-19 at 1hr denotes severe injury, 11-14 moderate injury and less than 10 mild injury.
# T2 sequence (P22303 32-617 isoform P22303-2 limits assumed): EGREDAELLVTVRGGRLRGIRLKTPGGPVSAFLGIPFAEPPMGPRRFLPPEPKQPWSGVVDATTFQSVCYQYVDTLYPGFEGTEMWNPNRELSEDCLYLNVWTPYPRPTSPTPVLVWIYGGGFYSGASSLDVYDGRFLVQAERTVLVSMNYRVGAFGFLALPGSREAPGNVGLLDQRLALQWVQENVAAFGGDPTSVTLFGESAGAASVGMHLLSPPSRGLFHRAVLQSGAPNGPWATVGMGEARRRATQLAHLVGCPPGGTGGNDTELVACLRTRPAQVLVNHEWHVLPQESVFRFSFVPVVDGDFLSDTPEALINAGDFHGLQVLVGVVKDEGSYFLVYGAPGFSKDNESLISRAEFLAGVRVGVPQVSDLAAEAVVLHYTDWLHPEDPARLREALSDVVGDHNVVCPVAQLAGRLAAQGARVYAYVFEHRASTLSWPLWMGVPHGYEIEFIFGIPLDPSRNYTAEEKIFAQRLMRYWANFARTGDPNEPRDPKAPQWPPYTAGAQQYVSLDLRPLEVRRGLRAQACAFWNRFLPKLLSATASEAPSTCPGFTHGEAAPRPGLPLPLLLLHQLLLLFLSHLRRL
compound,measurement,setting,value
C#CCNCCc1cccc(OC(=O)N(C)C)c1 [Compound 11],IC50,[1],25000 nM
same,IC50,[2],820 nM
C#CCN(C)CCc1cccc(OC(=O)N(C)C)c1 [Compound 12],IC50,[1],2500 nM
same,IC50,[2],880 nM
C#CCNC(C)Cc1cccc(OC(=O)N(C)C)c1 (centres unmarked) [Compound 16],IC50,[1],6000 nM
same,IC50,[2],370 nM
"C#CCNC(C)Cc1cccc(OC(=O)N(C)CC)c1 (stereo not drawn) [Compound 17, 3-(N-Me,N-Etcarbamyloxy)α-methyl, N-propargyl phenethylamine.HCl]",inhibition at 20 mg/kg,"[3]; po, Brain",59%
same,inhibition at 20 mg/kg,"[3]; po, Intestine",25%
same,inhibition at 20 mg/kg,"[3]; po, Liver",59%
same,inhibition at 20 mg/kg,"[3]; sc, Brain",76%
same,inhibition at 20 mg/kg,"[3]; sc, Intestine",10%
same,inhibition at 20 mg/kg,"[3]; sc, Liver",33%
same,IC50,[1],2000 nM
same,IC50,[2],36000 nM
same,inhibition at 20 mg/kg,"[4]; po, Brain",72%
same,inhibition at 20 mg/kg,"[4]; po, Intestine",40%
same,inhibition at 20 mg/kg,"[4]; po, Liver",74%
same,inhibition at 20 mg/kg,"[4]; sc, Brain",87%
same,inhibition at 20 mg/kg,"[4]; sc, Intestine",33%
same,inhibition at 20 mg/kg,"[4]; sc, Liver",51%
same,"ΔNSS, 24 hr post-CHI",[5]; saline 4.75±0.17,5.58±0.38
same,"ΔNSS, 7 days post-CHI",[5]; saline 5.83±0.36,6.92±0.36
same,"ΔNSS, 14 days post-CHI",[5]; saline 5.96±0.4,7.83±0.53
